From patent publication US20260217683A1, “PYRIDAZINONE HETEROCYCLIC COMPOUND MYOSIN II INHIBITOR AND USE THEREOF” (Xizang Haisco Pharmaceutical Co., Ltd., priority 2023, published 2026)
Where two headings read alike, the source gives them in different places.

Tests used:
cardiac myosin SII = biological target: T1, cardiac myosin SII (Bos taurus, UniProt Q9BE39); assay: Inhibition of hydrolysis of ATP by cardiac myosin SII; type: biochemical; settings: 100 μM compound
T1 construct: purchased Cytoskeleton #MYO3-A
T1 sequence (Q9BE39 whole entry): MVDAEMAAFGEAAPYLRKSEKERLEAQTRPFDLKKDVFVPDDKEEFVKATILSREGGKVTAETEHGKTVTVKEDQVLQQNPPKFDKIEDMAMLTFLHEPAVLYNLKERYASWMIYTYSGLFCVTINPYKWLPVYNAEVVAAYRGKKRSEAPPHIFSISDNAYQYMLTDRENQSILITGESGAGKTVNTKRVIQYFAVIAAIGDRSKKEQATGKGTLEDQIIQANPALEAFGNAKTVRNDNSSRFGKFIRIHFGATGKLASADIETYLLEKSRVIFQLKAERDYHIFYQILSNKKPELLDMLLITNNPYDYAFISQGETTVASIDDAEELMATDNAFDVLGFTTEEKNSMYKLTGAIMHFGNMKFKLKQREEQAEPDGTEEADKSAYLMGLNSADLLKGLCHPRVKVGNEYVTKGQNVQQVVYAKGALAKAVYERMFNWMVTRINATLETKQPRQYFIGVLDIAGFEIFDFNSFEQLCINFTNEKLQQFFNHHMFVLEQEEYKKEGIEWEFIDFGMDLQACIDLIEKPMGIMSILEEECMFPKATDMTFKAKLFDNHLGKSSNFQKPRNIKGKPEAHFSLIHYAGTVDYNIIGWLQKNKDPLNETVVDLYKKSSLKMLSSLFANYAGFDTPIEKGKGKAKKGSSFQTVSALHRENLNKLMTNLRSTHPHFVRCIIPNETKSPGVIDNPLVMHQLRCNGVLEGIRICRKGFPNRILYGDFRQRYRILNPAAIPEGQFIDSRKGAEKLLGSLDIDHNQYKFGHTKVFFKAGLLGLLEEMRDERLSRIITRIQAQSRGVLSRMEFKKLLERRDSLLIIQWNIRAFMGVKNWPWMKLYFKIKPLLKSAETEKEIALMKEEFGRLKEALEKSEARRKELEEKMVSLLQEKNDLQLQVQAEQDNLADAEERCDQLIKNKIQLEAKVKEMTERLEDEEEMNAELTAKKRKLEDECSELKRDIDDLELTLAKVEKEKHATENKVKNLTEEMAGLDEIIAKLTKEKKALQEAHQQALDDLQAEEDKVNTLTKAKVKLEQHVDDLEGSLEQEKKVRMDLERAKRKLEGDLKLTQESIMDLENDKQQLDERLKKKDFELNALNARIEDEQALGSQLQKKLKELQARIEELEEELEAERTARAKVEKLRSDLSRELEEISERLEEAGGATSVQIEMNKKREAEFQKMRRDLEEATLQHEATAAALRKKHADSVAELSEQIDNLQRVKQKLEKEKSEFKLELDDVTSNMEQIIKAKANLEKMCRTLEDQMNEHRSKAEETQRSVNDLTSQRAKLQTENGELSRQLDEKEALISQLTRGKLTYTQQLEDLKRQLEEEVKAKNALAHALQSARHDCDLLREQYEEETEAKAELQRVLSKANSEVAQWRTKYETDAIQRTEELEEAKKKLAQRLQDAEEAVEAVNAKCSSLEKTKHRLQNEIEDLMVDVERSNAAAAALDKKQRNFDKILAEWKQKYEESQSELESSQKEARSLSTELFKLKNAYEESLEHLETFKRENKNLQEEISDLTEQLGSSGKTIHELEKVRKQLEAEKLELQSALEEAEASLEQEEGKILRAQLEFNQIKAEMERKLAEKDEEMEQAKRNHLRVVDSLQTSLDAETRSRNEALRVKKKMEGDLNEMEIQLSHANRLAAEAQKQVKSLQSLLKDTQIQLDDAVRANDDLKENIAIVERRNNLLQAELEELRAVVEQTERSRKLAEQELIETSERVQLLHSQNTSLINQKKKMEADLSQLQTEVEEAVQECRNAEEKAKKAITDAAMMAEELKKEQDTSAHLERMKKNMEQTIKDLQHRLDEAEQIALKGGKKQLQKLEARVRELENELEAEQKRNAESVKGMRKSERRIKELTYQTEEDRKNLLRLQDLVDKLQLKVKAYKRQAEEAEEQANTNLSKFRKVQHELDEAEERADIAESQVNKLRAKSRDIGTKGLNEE
T1 sequence (P85100 whole entry partner): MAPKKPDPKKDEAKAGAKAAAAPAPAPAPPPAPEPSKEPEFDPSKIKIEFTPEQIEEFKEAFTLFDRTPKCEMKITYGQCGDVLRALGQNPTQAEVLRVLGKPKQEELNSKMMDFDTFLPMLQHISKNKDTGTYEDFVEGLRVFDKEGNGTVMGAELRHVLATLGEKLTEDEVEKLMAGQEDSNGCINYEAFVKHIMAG
T1 sequence (Q3SZE5 whole entry partner): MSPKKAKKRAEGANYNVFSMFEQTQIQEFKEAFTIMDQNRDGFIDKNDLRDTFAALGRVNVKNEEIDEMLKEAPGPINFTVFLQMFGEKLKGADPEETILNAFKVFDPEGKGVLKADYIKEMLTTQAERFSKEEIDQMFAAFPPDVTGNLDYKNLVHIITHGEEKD
Method in brief: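 Bovine cardiac myosin with preformed F-actin in 15 mM Tris-HCl pH 7.5, 10 mM KCl, 2 mM MgCl2, 0.1 mM EGTA; compounds at 100 μM final, ATP from 3 mM working solution, 2 h at 37 °C. Released Pi measured colorimetrically at 650 nm against a Pi standard curve; % inhibition vs. DMSO control.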

[1] = test system: rabbit skeletal muscle myosin; assay: Inhibition of hydrolysis of ATP by rabbit skeletal muscle myosin; type: biochemical
Method in brief: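 Actin-activated ATPase: F-actin plus rabbit skeletal myosin II with compound in Tris-HCl pH 7.5/KCl/EGTA/MgCl2, started with ATP (3 mM working stock) and run 60 min at 37 °C. Released Pi measured by CytoPhos absorbance at 650 nm against a phosphate standard curve; IC50 fitted from inhibition relative to uninhibited myosin.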

[2] = biological target: T2, hERG potassium ion channel (Homo sapiens, UniProt Q12809); assay: Effect on hERG potassium ion channel (manual patch-clamp, CHO cells); type: cell-based; settings: CHO cells stably expressing hERG, whole cell patch-clamp; read-out: IC50 of the inhibitory effect on hERG potassium channel current
T2 construct: expressed in transfected cells
T2 sequence (Q12809 whole entry): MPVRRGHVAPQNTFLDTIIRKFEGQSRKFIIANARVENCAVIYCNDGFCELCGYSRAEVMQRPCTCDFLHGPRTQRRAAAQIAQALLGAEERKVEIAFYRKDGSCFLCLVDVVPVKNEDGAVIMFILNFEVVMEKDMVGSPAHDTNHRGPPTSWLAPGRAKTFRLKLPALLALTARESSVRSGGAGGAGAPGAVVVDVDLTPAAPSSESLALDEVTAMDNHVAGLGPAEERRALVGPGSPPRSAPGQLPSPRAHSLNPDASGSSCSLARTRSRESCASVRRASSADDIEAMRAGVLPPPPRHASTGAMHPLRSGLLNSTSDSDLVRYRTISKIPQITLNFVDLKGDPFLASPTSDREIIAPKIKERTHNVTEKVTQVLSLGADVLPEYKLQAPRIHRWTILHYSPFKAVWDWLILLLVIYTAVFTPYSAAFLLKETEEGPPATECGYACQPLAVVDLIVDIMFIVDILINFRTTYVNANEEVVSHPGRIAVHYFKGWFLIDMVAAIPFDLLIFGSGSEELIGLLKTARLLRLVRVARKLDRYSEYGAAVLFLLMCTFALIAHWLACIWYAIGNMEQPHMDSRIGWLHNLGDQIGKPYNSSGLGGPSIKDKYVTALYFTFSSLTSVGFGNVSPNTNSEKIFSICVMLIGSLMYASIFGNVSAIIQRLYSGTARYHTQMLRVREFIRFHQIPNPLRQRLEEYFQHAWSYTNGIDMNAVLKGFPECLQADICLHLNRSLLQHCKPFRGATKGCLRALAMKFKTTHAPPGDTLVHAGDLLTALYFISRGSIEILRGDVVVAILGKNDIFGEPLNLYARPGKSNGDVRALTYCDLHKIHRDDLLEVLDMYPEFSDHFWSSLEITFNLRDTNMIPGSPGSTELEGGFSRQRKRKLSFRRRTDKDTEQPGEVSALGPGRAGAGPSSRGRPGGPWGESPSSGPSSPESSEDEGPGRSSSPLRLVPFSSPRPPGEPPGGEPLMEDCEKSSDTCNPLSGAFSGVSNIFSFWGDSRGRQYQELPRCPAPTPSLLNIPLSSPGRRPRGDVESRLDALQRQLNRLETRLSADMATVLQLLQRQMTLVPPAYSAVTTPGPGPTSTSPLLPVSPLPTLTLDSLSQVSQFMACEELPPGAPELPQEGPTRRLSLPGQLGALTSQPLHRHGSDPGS
Text: 1. Experimental platform: electrophysiological manual patch-clamp system
2. Cell line: Chinese hamster ovary (CH—O) cell lines stably expressing hERG potassium ion channel
3. Experimental method: in CHO (Chinese Hamster Ovary) cells stably expressing hERG potassium channel, whole cell patch-clamp technique was used to record hERG potassium channel current at room temperature. The glass microelectrode was made of a glass electrode blank (BF150-86-10, Sutter) by a puller. The tip resistance after filling the liquid in the electrode was about 2-5 MQ. The glass microelectrode can be connected to the patch-clamp amplifier by inserting the glass microelectrode into an amplifier probe. The clamping voltage and data recording were controlled and recorded by the pClamp 10 software through a computer. The sampling frequency was 10 kHz, and the filtering frequency was 2 kHz. After the whole cell records were obtained, the cells were clamped at −80 mV, and the step voltage that induced the hERG potassium current (IhERG) was depolarized from −80 mV to +20 mV for 2 s, then repolarized to −50 mV, and returned to −80 mV after 1 s. This voltage stimulation was given every 10 s, and the administration process was started after the hERG potassium current was confirmed to be stable (at least 1 minute). The compound was administered for at least 1 minute at each test concentration, and at least 2 cells (n≥2) were tested at each concentration.
4. Data processing: Data analysis processing was carried out by using pClamp 10, GraphPad Prism 5 and Excel software. The inhibition degree of hERG potassium current (peak value of hERG tail current induced at −50 mV) at different compound concentrations was calculated by the following formula:
[formula] • where Inhibition % represents the percentage of inhibition of hERG potassium current by the compound, and I and Io represent the amplitude of hERG potassium current after and before the administration, respectively.
Compound IC50 was calculated using GraphPad Prism 5 software by fitting according to the following equation: […]
Among the equation, X represents the Log value of the tested concentration of the test sample, Y represents the inhibition percentage at the corresponding concentration, and Bottom and Top represent the minimum and maximum inhibition percentage, respectively.

[3] = Pharmacokinetic experiment in mice; type: in vivo; settings: male, C57, po; mouse plasma, i.g. (10 mg/kg)
Method: (§1) 1. Experimental animals: Male C57 mice, 22-25 g, 6 mice/compound. Purchased from Chengdu Ddossy Experimental Animals Co., Ltd.
(§2) 2. Experimental design: On the day of the experiment, 12 C57 mice were randomly grouped according to their body weight. The animals were fasted with water available for 12 to 14 h one day before the administration and were fed 4 h after the administration.
Before and after the administration, 0.06 mL of blood was taken from the orbit of the animals under isoflurane anesthesia and placed in an EDTAK2 centrifuge tube. The blood was centrifuged at 5000 rpm and 4° C. for 10 min to collect the plasma. The blood collection time points for the intravenous group and intragastric administration group were: 0 m, 5 m, 15 min, 30 min, 1 h, 2 h, 4 h, 7 h and 24 h. Before analysis and detection, all samples were stored at −80° C., and a quantitative analysis of samples was performed using LC-MS/MS.

smooth muscle myosin S1 = biological target: T3, smooth muscle myosin S1 (Gallus gallus, UniProt P10587); assay: Inhibition of hydrolysis of ATP by smooth muscle myosin S1 fragments; type: biochemical; settings: 100 μM compound
T3 construct: purchased Cytoskeleton #CS-MYS05
T3 sequence (P10587 84-789 limits assumed): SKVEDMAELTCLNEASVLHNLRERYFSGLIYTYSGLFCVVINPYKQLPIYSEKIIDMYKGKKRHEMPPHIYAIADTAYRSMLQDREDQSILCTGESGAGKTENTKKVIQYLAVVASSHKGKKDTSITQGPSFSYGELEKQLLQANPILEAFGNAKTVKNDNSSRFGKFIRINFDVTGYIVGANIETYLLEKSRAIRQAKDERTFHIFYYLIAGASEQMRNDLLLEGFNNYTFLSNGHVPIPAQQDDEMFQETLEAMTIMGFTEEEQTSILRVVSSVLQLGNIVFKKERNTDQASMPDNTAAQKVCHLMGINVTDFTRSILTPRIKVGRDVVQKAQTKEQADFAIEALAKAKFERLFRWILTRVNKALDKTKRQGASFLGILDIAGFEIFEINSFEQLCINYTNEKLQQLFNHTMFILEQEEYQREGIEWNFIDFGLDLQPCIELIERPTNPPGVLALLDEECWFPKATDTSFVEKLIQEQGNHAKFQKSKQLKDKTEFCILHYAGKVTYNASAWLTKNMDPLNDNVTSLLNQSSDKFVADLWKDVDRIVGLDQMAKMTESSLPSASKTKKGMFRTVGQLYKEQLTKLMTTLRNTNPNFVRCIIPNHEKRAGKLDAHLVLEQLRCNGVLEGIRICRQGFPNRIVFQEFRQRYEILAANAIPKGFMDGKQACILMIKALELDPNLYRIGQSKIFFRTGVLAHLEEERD
T3 sequence (P02607 whole entry partner, the tested form may be a part): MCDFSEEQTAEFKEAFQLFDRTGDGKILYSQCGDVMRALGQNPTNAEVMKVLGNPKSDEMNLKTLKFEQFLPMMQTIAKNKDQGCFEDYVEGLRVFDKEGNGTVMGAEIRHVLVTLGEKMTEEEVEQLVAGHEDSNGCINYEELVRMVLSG
Method in brief: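 Smooth muscle myosin S1 fragment (0.7 mg/mL in PM12 buffer with 1 mM DTT) was mixed with compound and F-actin polymer prepared from cardiac actin, then 5 mM ATP working solution started the reaction at 37° C. for 20 min. Released Pi was measured with CytoPhos reagent at 650 nm against a standard curve, and inhibition was calculated relative to positive control wells.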

[4] = Pharmacokinetic experiment in mouse muscle tissue (tibialis anterior / plasma); type: in vivo, C57 mice; settings: male, C57, tibialis anterior muscle / plasma, oral, intragastric 10 mg/kg, read-out: Ratio = Tibialis anterior Conc./Plasma Conc.
Method: as §1
as §2, with “experiment,” for “experiment, 12”, “administration. Administration was performed as per Table 10.1.” for “administration.”

CYP3A4 = biological target: T4, CYP3A4 (Homo sapiens, UniProt P08684); assay: CYP450 enzyme inhibition, human liver microsomes, CYP3A4; type: in vitro ADME
T4 construct: incubated with human liver microsomes and test compounds of different concentrations; from tissue; host or cells: human liver microsomes
T4 sequence (P08684 whole entry): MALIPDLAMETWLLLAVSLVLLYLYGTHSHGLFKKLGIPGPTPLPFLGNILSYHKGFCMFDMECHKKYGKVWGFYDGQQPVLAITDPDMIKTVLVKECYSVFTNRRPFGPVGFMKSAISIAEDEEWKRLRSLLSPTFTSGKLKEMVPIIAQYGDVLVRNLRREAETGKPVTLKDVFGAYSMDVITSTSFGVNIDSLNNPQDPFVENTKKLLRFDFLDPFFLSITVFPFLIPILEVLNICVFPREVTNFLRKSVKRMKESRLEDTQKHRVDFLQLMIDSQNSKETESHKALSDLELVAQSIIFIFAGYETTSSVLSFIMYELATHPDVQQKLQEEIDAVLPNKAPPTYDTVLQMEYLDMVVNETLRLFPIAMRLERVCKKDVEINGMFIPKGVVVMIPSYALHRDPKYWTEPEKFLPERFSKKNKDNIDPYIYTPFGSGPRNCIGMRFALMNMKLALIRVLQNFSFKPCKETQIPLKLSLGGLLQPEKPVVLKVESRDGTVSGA
Method: (§3) The purpose of this study was to evaluate the effect of the test compound on the activity of five isoenzymes (CYP1A2, CYP2C9, CYP2C19, CYP2D6 and CYP3A4) of human liver microsomal cytochrome P450 (CYP) by using an in vitro testing system. The specific probe substrates of CYP450 isoenzymes were incubated with human liver microsomes and test compounds of different concentrations, and reduced nicotinamide adenine dinucleotide phosphate (NADPH) was added to initiate the reaction. After the completion of the reaction, the sample was treated and liquid chromatography-tandem mass spectrometry (LC-MS/MS) was used to quantitatively detect metabolites produced by specific substrates, changes in CYP enzyme activity were determined, and IC50 value was calculated to evaluate the inhibitory potential of the test compound on each CYP enzyme subtype.

CYP2C9 = biological target: T5, CYP2C9 (Homo sapiens, UniProt P11712); assay: CYP450 enzyme inhibition, human liver microsomes, CYP2C9; type: in vitro ADME
T5 construct: incubated with human liver microsomes and test compounds of different concentrations; from tissue; host or cells: human liver microsomes
Method: as §3

CYP1A2 = biological target: T6, CYP1A2 (Homo sapiens, UniProt P05177); assay: CYP450 enzyme inhibition, human liver microsomes, CYP1A2; type: in vitro ADME
T6 construct: incubated with human liver microsomes and test compounds of different concentrations; from tissue; host or cells: human liver microsomes
T6 sequence (P05177 1-516): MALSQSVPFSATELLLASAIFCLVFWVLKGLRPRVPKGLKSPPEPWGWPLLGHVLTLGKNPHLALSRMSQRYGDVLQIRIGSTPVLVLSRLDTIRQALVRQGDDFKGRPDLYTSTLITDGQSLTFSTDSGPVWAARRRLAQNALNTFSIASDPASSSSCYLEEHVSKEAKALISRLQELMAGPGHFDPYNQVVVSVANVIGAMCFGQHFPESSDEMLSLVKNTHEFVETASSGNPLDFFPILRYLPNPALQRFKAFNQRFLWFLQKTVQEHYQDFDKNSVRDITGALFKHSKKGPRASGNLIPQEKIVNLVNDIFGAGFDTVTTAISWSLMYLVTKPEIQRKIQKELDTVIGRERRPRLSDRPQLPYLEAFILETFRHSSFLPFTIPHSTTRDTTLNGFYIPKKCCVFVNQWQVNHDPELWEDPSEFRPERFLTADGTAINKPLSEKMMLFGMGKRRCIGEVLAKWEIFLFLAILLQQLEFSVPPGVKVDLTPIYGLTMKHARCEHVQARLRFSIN
Method: as §3

CYP2C19 = biological target: T7, CYP2C19 (Homo sapiens, UniProt P33261); assay: CYP450 enzyme inhibition, human liver microsomes, CYP2C19; type: in vitro ADME
T7 construct: incubated with human liver microsomes and test compounds of different concentrations; from tissue; host or cells: human liver microsomes
Method: as §3

CYP2D6 = biological target: T8, CYP2D6 (Homo sapiens, UniProt P10635); assay: CYP450 enzyme inhibition, human liver microsomes, CYP2D6; type: in vitro ADME
T8 construct: incubated with human liver microsomes and test compounds of different concentrations; from tissue; host or cells: human liver microsomes
Method: as §3

B10-Dmd-KO (Mdx) mice = assay: PK/PD detection of mouse model with Dmd (Mdx) gene mutation, plasma CK; type: in vivo; settings: 10 mpk single administration, oral
Text: Experimental objective: Bl0-Dmd-KO (Mdx) mice are DMD function-deficient mice caused by frameshift mutations in the Dmd gene. […] This study has investigated the effects on CK and TNNI2 in the plasma of Mdx mice upon administration of compounds.
Experimental animal: B10-Dmd-KO (C57BL/10ScSnJGpt-Dmdem3Cd4/Gpt), male, 5-7 weeks old, weight 28-30 g, supplier. Gempharmatech Co., Ltd.;
• 1) Running training (D-5): Mdx mice underwent running training in batches. The training parameters were set as three time periods, i.e., the initial speed of 4 m/min for 2 min, then 8 m/min for 8 min, and finally 12 m/min for 30 min, a total of 40 min; • 2) Gripping strength test (D-2): each round was measured three times, and three rounds were performed; • 3) Grouping (DO): the animals were anesthetized by inhalation of isoflurane (concentration: 5%, gas flow rate: 1 L/min), and then a capillary tube was used to collect blood (about 150 μL) via orbital venous sinus into a 0.6 mL centrifuge tube containing EDTA anticoagulant, the plasma wad separated, and the CK value was detected, which was used as the basic value for grouping; • 4) Administration, grasping, and blood collection (D1): The compounds were dissolved in the vehicle 5% DMA+5% HS-15+90% Saline, then orally administered to the mice, and then the grip strength test was conducted (three tests per round for three rounds). […] A capillary tube was used to collect blood (>300 μL) via orbital venous sinus into a 0.6 mL centrifuge tube containing EDTA anticoagulant, and then the animals were euthanized to collect the tibialis anterior muscle (left leg), soleus muscle (both legs) and cardiac muscle, which were weighed and recorded, placed in a homogenization tube and quickly frozen in liquid nitrogen, then stored at −80° C.
Sample processing: After the whole blood anticoagulated with EDTA was centrifuged at 3000 rpm and 4° C. for 10 min, the […] was collected and subpackaged. The separated […] was subjected to a biochemical analyzer (Fully automatic biochemical analyzer Roche C311) to detect the CK value and TNN12 value (Mouse TNNI2 Elisa Kit, ABBEXA, E2207370Y); The […] concentration of the compound and the drug concentration in tibialis anterior muscle, soleus muscle and cardiac muscle were measured by LC/MS instrument.

[5] = inhibition of hydrolysis of ATP, class symbols, read-out: Rabbit skeletal muscle myosin (IC50)
[6] = read-out: IC50 for inhibition of hydrolysis of ATP by rabbit skeletal muscle myosin

Row | inhibition at 100 µM (cardiac myosin SII) | IC50 [1, 5] | IC50 [1, 6] | half-life [3] | inhibition at 100 µM (smooth muscle myosin S1) | Kp at 6 h [4] | Kp at 24 h [4] | Structure (SMILES) | IC50 [2] | other results
1 | 17% | < 2.5 µM | 0.2 µM | – | – | – | – | O=c1ccc(-c2cnc(C3CC3)nc2)nn1Cc1ccc2c(c1)CC2 [Compound 92] | > 40 µM | –
2 | 22% | < 2.5 µM | 0.2 µM | 41.9 h | -2% | 146 | 178 | O=C1CCc2ccc(Cn3nc(-c4cnc(OCC5CC5)nc4)ccc3=O)cc21 [Compound 129] | – | –
3 | – | – | – | 18.9 h | – | – | – | O=c1ccc(-c2cnc(OCC(F)(F)F)nc2)nn1Cc1ccc2[nH]ncc2c1 [Comparative Example 1, reference compound] | 2.5 µM | IC50 (CYP3A4): > 30 µM; AUC(0-t) [3]: 2210 ng·h/mL; Cmax [3]: 267 ng/mL; IC50 (CYP2C9): 4.44 µM; IC50 (CYP1A2): > 30 µM; IC50 (CYP2C19): 1.85 µM; IC50 (CYP2D6): 8.81 µM
4 | 10% | < 2.5 µM | – | – | -3% | – | – | O=C1CCc2ccc(Cn3nc(-c4cnc(C5CC5)nc4)ccc3=O)cc21 [Compound 157] | > 40 µM | –
5 | 4% | < 2.5 µM | – | – | -12% | – | – | O=C1CCc2ccc(Cn3nc(-c4cnc(Oc5cncc(F)c5)nc4)ccc3=O)cc21 [Compound 124] | > 40 µM | –
6 | – | < 2.5 µM | 0.34 µM | – | – | 175 | 316 | O=c1ccc(-c2cnc(OCC(F)(F)F)nc2)nn1Cc1ccc2c(c1)CC2 [Compound 56] | – | Inhibition rate of CK values (sampled 24 h after (last) dose) (B10-Dmd-KO (Mdx) mice): 88.4%
